Like-named read-outs stand apart in the source and are kept apart here.
Experiments:
KRas wild type = KRas wild type (Homo sapiens (Human), UniProt P01116); test: Ras GTP Binding Domain Inhibition Assay, KRas wild type
Protocol: (§1) A Ras Superfamily Activity Assay (as disclosed in International Application No. PCT/US2018/038613, filed Jun. 20, 2018, which is incorporated by reference in its entirety) was used as a specific assay to evaluate compounds against the following for the following Ras Superfamily proteins: KRas wild type, KRas Q61H mutant, KRas G12C mutant, KRas G12D mutant, Rac-1, and Rho-A.
(§2) Buffer-I: • 25 mM Tris-HCl, pH 7.4 • 27 mM KCl • 137 mM NaCl • 1 mM MgCl2 • 1 mM DTT
(§3) Buffer-II: • 50 mM Tris-HCl, pH 7.0 • 1 mM MgCl2 • 1 mM DTT
(§4) The small GTPases proteins: KRas wild type. KRas Q61H mutant, KRas G12C mutant, KRas G12D mutants, Rac-1, and Rho-A were expressed as His-tagged proteins. In addition, the Guanosine nucleotide Exchange Factor (GEF) Sos protein (residues 556-1049) was expressed as a His-tagged protein. In cells, the guanine nucleotide exchange factor Sos protein promotes activation of Ras proteins by stimulating an exchange of GDP for GTP. The inclusion of Sos to the Ras GTP binding domain inhibition assay may be considered as an alternative representation of physiological cellular conditions for evaluating the inhibitory activity of some of the tested small molecules.
(§5) For the assay, all purified small GTPases proteins were diluted in Buffer-I or Buffer-II to a final concentration of 10-30 μg/mL. 200 μL of each diluted protein was added to a nickel-coated 96-well plate and incubated overnight at 4° C. Then the protein solution was discarded and 200 μL of Buffer-I or Buffer-II was added to each well in the presence of 1% DMSO. Compounds to be tested were added to the protein-coated wells at final concentration of 20 μM, and incubated for 3 hours at room temperature with and without 10-30 μg/mL of Sos added to the final hour of the incubation. When performing IC50 measurements a serial dilution of all tested concentrations was added. Then Cy3-GTP or Cy5-GTP was added to each well to a final concentration of 100 nM. The labeled GTP was incubated for 45 minutes at room temperature. Following GTP incubation, wells were washed 3× in Buffer-I or Buffer-II and 200 μL of Buffer-I or Buffer-II was added to each well. Following washes, the amount of bound labeled-GTP was measured using a SpectraMax M3 (Molecular Devices).

Rac-1 = Rac-1 (Homo sapiens (Human), UniProt P63000); test: Ras GTP Binding Domain Inhibition Assay, Rac-1
Protocol: as §1, §2, §3, §4, §5

JNK = JNK Activation Assay in Panc-1 (western blot); assay type: cell-based, Human; design: key: Y = yes; N = No; conditions: at 10 μM
Protocol: (§6) Cell lines: Human tumor-derived pancreatic cancer cell line Panc-1 and mouse muscle myoblast C2C12 were purchased from American Type Culture Collection and grown in complete DMEM-High Glucose, supplemented with penicillin (100 U/mL), streptomycin (100 μg/mL), and 10% heat-inactivated FBS at 37° C. in a humidified incubator with 5% CO2.
(§7) Method: Cells were plated at 350000 cells/well density in a 12-well plate, allowed 3 hours to adhere to the plate, then starved in the appropriate medium in the presence of 0.5% FBS overnight. The small molecules to be tested were added to the cells in the final concentration of 10 μM in the presence of 0.3% DMSO for 3 hours incubation at 37° C. For IC50 value determination, serial dilutions of compounds were added to cells under the same conditions. Next, Panc-1 cells were stimulated with 10 ng/ml TGF-b1 for 1 hour, and C2C12 cells were stimulated with 10 ng/ml TGF-b1 for 20 minutes (recombinant human TGF-b1, R&D Systems). After stimulation cells were lysed with lysis buffer containing 1% Triton X-100, EDTA, and Halt™ Protease & Phosphatase Inhibitor Cocktail (Thermo Scientific). Protein concentration was assessed by BCA protein assay (Thermo Scientific). Phosphorylation level of JNK was determined by western blot.
(§8) Western blot protocol: Equal amounts of protein (15-50 μg) were separated by SDS-PAGE and transferred to nitrocellulose membranes (Invitrogen by Thermo Fisher Scientific). The membrane was stained with Ponceau S Stain (Boston BioProducts) to verify uniform protein loading. Membranes were blocked with 10% milk and phosphorylation levels of Smad2, Smad3, INK and p38 were assessed by incubating overnight at 4° C. with the following antibody: Phospho-SAPK/JNK (Thr183/Tyr185), from Cell Signaling Technology. Then the membranes were incubated with HRP-conjugated secondary antibody (Jackson Immunoresearch, West Grove, PA). Bands were incubated in Amersham ECL Prime Western Blotting Detection Reagent (GE Healthcare) and visualized using the ChemiDoc MP imaging system (Bio-Rad).

Smad2/3 phosphorylation = test: Phospho-Smad2/3 Inhibition Assay in Panc-1 (western blot); assay type: cell-based; conditions: Homo sapiens; for inhibition at 10 µM: 3 hours, PANC-1 stimulated with 10 ng/ml TGF-b1 for 1 hour, read-out: % inh of Smad2/3 phosphorylation in PANC-1; for IC50: PANC-1, TGF-b1 stimulated
Protocol: as §6
as §7, with “Smad2/Smad3” for “JNK”
as §8, with “Smad2/Smad3” for “Smad2, Smad3, INK and p38”, “antibodies: Phospho-Smad2 (Ser465/467) and Phosph-Smad3 (Ser423/425), both” for “antibody: Phospho-SAPK/JNK (Thr183/Tyr185),”

[1] = + SOS, read-out: KRas wild type + SOS: % inh.
[2] = without SOS, read-out: KRas wild type: % inh.
[3] = + SOS, read-out: Rac-1 + SOS: % inh.
[4] = without SOS, read-out: Rac-1: % inh.

KRas wild type, sequence (P01116 other isoform, or with tags, fused parts or gaps): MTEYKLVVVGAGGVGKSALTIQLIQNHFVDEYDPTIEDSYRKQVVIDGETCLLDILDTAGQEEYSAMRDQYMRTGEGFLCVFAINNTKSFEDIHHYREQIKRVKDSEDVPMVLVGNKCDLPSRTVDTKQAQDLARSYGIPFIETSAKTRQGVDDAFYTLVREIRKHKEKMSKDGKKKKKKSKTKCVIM

inhibition at 20 µM (KRas wild type; [1]) [%] | inhibition at 20 µM (KRas wild type; [2]) [%] | inhibition at 20 µM (Rac-1; [3]) [%] | inhibition at 20 µM (Rac-1; [4]) [%] | IC50 (Smad2/3 phosphorylation) [µM] | Compound | Activation of JNK in PANC-1 (JNK) | inhibition at 10 µM (Smad2/3 phosphorylation) [%]
76 to 100 | 26 to 45 | 46 to 75 | 46 to 75 | 5 to 10 | CO[C@H]1CC[C@@H](Nc2nc(-c3nccn3C)nc3sc(-c4ccn(C)n4)c(-c4ccccc4)c23)C1 (racemic) [Compound 5, rac-N-((1R,3S)-3-Methoxycyclopentyl)-2-(1-methyl-1H-imidazol-2-yl)-6-(1-methyl-1H-pyrazol-3-yl)-5-phenylthieno[2,3-d]pyrimidin-4-amine] | Y | 76 to 100
46 to 75 | 46 to 75 | 46 to 75 | 46 to 75 | – | COc1cccc(-c2sc3nc(-c4nccn4C)nc(NC4CCC(OC)C4)c3c2C)c1F (racemic) [Compound 10, rac-6-(2-Fluoro-3-methoxyphenyl)-N-((1R,3S)-3-methoxycyclopentyl)-5-methyl-2-(1-methyl-1H-imidazol-2-yl)thieno[2,3-d]pyrimidin-4-amine and rac-6-(2-Fluoro-3-methoxyphenyl)-N-((1R,3R)-3-methoxycyclopentyl)-5-methyl-2-(1-methyl-1H-imidazol-2-yl)thieno[2,3-d]pyrimidin-4-amine] | Y | 1 to 25
76 to 100 | 76 to 100 | 46 to 75 | 46 to 75 | – | CO[C@H]1CC[C@@H](Nc2nc(-c3nccn3C)nc3sc(-c4ccn(C(C)C)n4)c(C)c23)C1 (racemic) [Compound 12, rac-6-(1-Isopropyl-1H-pyrazol-3-yl)-N-((1R,3S)-3-methoxycyclopentyl)-5-methyl-2-(1-methyl-1H-imidazol-2-yl)thieno[2,3-d]pyrimidin-4-amine] | Y | 1 to 25
76 to 100 | 46 to 75 | 26 to 45 | 1 to 25 | – | CO[C@@H]1CC[C@H](Nc2nc(-c3nccn3C)nc3sc(-c4ccn(C(C)C)n4)c(-c4ccccc4)c23)C1 (single isomer, unassigned) [Compound 11] | Y | 46 to 75
1 to 25 | 1 to 25 | – | 76 to 100 | – | COCCNc1nc(-c2nccn2C)nc2sc(-c3ccccc3)c(-c3ccccc3)c12 [Compound 1, N-(2-Methoxyethyl)-2-(1-methyl-1H-imidazol-2-yl)-5,6-diphenylthieno[2,3-d]pyrimidin-4-amine] | Y | 46 to 75
– | 46 to 75 | – | 26 to 45 | – | COCCN(C)c1nc(-c2nccn2C)nc2sc(-c3ccccc3)c(-c3ccccc3)c12 [Compound 2, N-(2-Methoxyethyl)-N-methyl-2-(1-methyl-1H-imidazol-2-yl)-5,6-diphenylthieno[2,3-d]pyrimidin-4-amine] | Y | 0
1 to 25 | 46 to 75 | – | 46 to 75 | – | COCCCNc1nc(-c2nccn2C)nc2sc(-c3ccccc3)c(-c3ccccc3)c12 [Compound 3, N-(3-Methoxypropyl)-2-(1-methyl-1H-imidazol-2-yl)-5,6-diphenylthieno[2,3-d]pyrimidin-4-amine] | Y | 0
– | 1 to 25 | – | 26 to 45 | – | COCCNc1nc(-c2nccn2C)nc2sc(-c3ccccc3)c(-c3ccccc3Cl)c12 [Compound 4, 5-(2-Chlorophenyl)-N-(2-methoxyethyl)-2-(1-methyl-1H-imidazol-2-yl)-6-phenylthieno[2,3-d]pyrimidin-4-amine] | Y | 26 to 45
26 to 45 | 0 | 26 to 45 | 26 to 45 | – | COC1CCN(c2nc(-c3nccn3C)nc3sc(-c4ccn(C)n4)c(-c4ccccc4)c23)CC1 [Compound 6, 4-(4-Methoxypiperidin-1-yl)-2-(1-methyl-1H-imidazol-2-yl)-6-(1-methyl-1H-pyrazol-3-yl)-5-phenylthieno[2,3-d]pyrimidine] | Y | 0
76 to 100 | 46 to 75 | 46 to 75 | 46 to 75 | 5 to 10 | COCCNc1nc(-c2nccn2C)nc2sc(-c3cccc(OC)c3Cl)c(-c3ccc(OC)cc3)c12 [Compound 7, 6-(2-Chloro-3-methoxyphenyl)-N-(2-methoxyethyl)-5-(4-methoxyphenyl)-2-(1-methyl-1H-imidazol-2-yl)thieno[2,3-d]pyrimidin-4-amine] | Y | 0
76 to 100 | 46 to 75 | 46 to 75 | 46 to 75 | 5 to 10 | COCCNc1nc(-c2cn(C)cn2)nc2sc(-c3cccc(OC)c3Cl)c(-c3ccc(OC)cc3)c12 [Compound 8, 6-(2-Chloro-3-methoxyphenyl)-N-(2-methoxyethyl)-5-(4-methoxyphenyl)-2-(1-methyl-1H-imidazol-4-yl)thieno[2,3-d]pyrimidin-4-amine] | Y | 76 to 100
